Measurements from US8840899B2, “Use of mTOR inhibitors to enhance T cell immune responses” (priority 2008, dated 2014).
Entries after “also recorded” stand apart in the source; their conditions may differ. Read-outs that look alike come from different tables or passages of the source.

Assays:
[1] = tested on: LCMV-specific P14 transgenic CD8^+ T cells; parameters: species or system mice; conditions: mouse, in vivo
raptor = assay type: cell-based, mice; conditions: GFP^+ P14 cells, Day 7 or 8 post-infection
FKBP12 = assay type: cell-based, mice; conditions: GFP^+ P14 cells, Day 7 or 8 post-infection
[2] = mice
[3] = tested on: virus-specific CD8^+ T cells; parameters: species or system mice; conditions: mouse, in vivo
[4] = tested on: CD62L^low effector CD8^+ T cells (P14 cells); assay type: in vivo, mice
[5] = tested on: virus-specific CD8^+ T cells; parameters: species or system mice; conditions: mouse, in vivo; remark: listed apart in the source
[6] = tested on: virus-specific memory CD4^+ T cells; parameters: species or system mice; conditions: mouse, in vivo
P14 cells = assay type: in vivo, mice
P14 memory T cells = assay type: in vivo; conditions: VVGP33 challenge, vs memory cells of untreated mice
[7] = tested on: DbGP33 tetramer-positive P14 cells; assay type: in vivo, mice
[8] = tested on: LCMV-specific CD8^+ T cells (P14 cells); parameters: species or system mice; conditions: mouse, in vivo
LCMV = tested on: LCMV; parameters: species or system mice; conditions: mouse, in vivo
[9] = rhesus macaques, approximately 10-50 μg/kg/day intramuscularly
[10] = tested on: vaccinia virus (VV) that expresses the GP33 epitope (VVgp33); parameters: species or system mice; conditions: mouse, in vivo
[11] = tested on: virus-specific CD8^+ T cells; parameters: species or system mice; conditions: mouse, in vivo; remark: listed apart in the source
[12] = tested on: DbGP33 tetramer-positive CD8^+ T cells; test: rAd5-LCMV-GP vaccination with low dose rapamycin; assay type: in vivo, mice
Experimental: Mice were vaccinated with rAd5-LCMV-GP (1×10^10 viral particles) by intramuscular injection on Day 0 and either left untreated or treated with rapamycin at a dose of 0.075 mg/kg from Day −1 to Day 34 (FIG. 19A). The number of DbGP33 tetramer-positive CD8^+ T cells in the spleen of treated and untreated mice was determined by FACS on Day 35 post-vaccination. […] The phenotype of virus-specific CD8^+ T cells was also evaluated by FACS (FIG. 19C).

[13] = tested on: vaccinia virus-specific CD8^+ T cells; parameters: species or system Rhesus macaques (Macaca mulatta); conditions: rhesus monkey, in vivo
[14] = tested on: antigen-specific CD8^+ T cells; parameters: species or system mice; conditions: mouse, in vivo
[15] = tested on: GP33 epitope-specific CD8^+ T cells; assay type: in vivo, mice
[16] = tested on: GP33 epitope-specific memory CD8^+ T cells (P14 cells); test: Rapamycin during T cell maintenance phase, adoptively transferred CFSE-labeled memory P14 cells; assay type: in vivo, mice
P14 memory cells = assay type: in vivo, mice
[17] = tested on: FKBP12 RNAi retrovirus transduced P14 cells; parameters: species or system mice; conditions: mouse, in vivo
[18] = tested on: virus-specific CD8^+ T cells; parameters: species or system mice; conditions: mouse, in vivo; remark: listed apart in the source
[19] = Day 31 post-infection, spleen, relative to control

## raptor shRNA (guide GCCCGAGTCTGTGAATGTAAT)
[1]
  expression of phenotypic markers on antigen-specific T cells: identical to what was observed upon knockdown of mTOR
  virus-specific memory T cell phenotype in spleen: high quality memory T cell phenotype (CD127^High, CD62L^high KLRG-1^Low)
raptor
  Expression of raptor protein: significantly reduced

## FKBP12 shRNA (guide GCCAAACTGATAATCTCCTCA)
FKBP12
  Expression of FKBP12 protein: significantly reduced

## CO[C@H]1C[C@@H]2CC[C@@H](C)[C@@](O)(O2)C(=O)C(=O)N2CCCC[C@H]2C(=O)O[C@H]([C@H](C)C[C@@H]2CC[C@@H](O)[C@H](OC)C2)CC(=O)[C@H](C)/C=C(\C)[C@@H](O)[C@@H](OC)C(=O)[C@H](C)C[C@H](C)/C=C/C=C/C=C/1C [rapamycin, (3S,6R,7E,9R,10R,12R,14S,15E,17E,19E,21S,23S,26R,27R,34aS)-9,10,12,13,14,21,22,23,24,25,26,27,32,33,34,34a-hexadecahydro-9,27-dihydroxy-3-[(1R)-2-[(1S,3R,4R)-4-hydroxy-3-methoxycyclohexyl]-1-methylethyl]-10,21-dimethoxy-6,8,12,14,20,26-hexamethyl-23,27-epoxy-3H-pyrido[2,1-c][1,4]-oxaazacyclohentriacontine-1,5,11,28,29(4H,6H,31H)-pentone]
[2]; 0.6 mg/kg (600 μg/kg) intraperitoneally daily
  blood concentration: 40 to 100 ng/mL
[2]; low dose 0.075 mg/kg (75 μg/kg) daily
  blood concentration: 5 to 20 ng/mL
[3]
  percentage of virus-specific CD8^+ T cells (DbGP33 tetramer) in PBMCs: 2.49%
[4]; 0.6 mg/kg daily after transfer, blood/PBMC, vs control mice
  CD62L re-expression on transferred virus-specific CD8^+ T cells: quickly re-expressed CD62L; also recorded: re-expressed CD62L much faster
[4]; 0.6 mg/kg daily, Day 26 post-transfer, vs untreated
  absolute number of CD62L^High virus-specific CD8^+ T cells in spleen: greater
[4]; effector to memory transition phase after transfer
  cell division during CD62L re-expression (CFSE): no or minimal cell division; also recorded: no cell division
[5]
  Bcl-2 expression of virus-specific CD8^+ T cells in lymph node: higher than control
  cell surface markers of virus-specific CD8^+ T cells in lymph node: no significant change
  number of memory cells generated: not affected
  number of virus-specific CD8^+ T cells in the spleen: did not reduce
  number of virus-specific CD8^+ T cells with phenotype of highly functional memory cells: significantly higher number
  phenotype of GP33, GP276 and NP396 epitope-specific CD8^+ T cells in spleen: high quality memory T cells (CD127^High, CD62L^High, KLRG-1^Low, CD27^High, Bcl-2^High)
[6]
  number of IFN-γ^+ CD4^+ T cells upon GP61 peptide stimulation: higher number of IFN-γ^+ cells
P14 cells; 0.6 mg/kg daily from Day 8 after VV infection, Day 31, vs control
  number of virus-specific CD8^+ T cells (P14) in spleen: similar
P14 cells; [19]
  expression of CD27 and Bcl-2 on virus-specific CD8^+ T cells: higher
  expression of KLRG-1 on virus-specific CD8^+ T cells: lower
P14 cells; Day 31 post-infection, spleen, vs control
  CD127 and CD62L expression on virus-specific CD8^+ T cells: no significant difference
P14 memory T cells
  recall responses of memory CD8^+ T cells generated with rapamycin: superior
[7]; Day 5 post-challenge, vs untreated
  absolute number of DbGP33 tetramer-positive P14 cells in spleen: greater
[7]; rapamycin 25 days, VVGP33 challenge Day 28 post-transfer
  recall responses of memory CD8^+ T cells differentiated with rapamycin: better
[7]; rapamycin for 25 days, VVgp33 challenge Day 28, Day 5 post-challenge, untreated 1.69%
  percentage of DbGP33 tetramer-positive P14 cells in the spleen: 4.93%
[8]
  expression of CD127 and CD62L on LCMV-specific CD8^+ T cells: enhanced expression
  percentage of virus-specific CD8^+ T cells in PBMCs: greater
  recall responses: enhanced
LCMV
  LCMV titer relative to untreated mice: significantly increased
[9]
  Blood levels of rapamycin: 5 to 15 ng/mL
[10]
  protective immunity (viral control): better
  viral titer in the ovaries: reduction in viral titer
[11]
  LCMV-specific CD8^+ T cell response: enhanced
  contraction of the T cell response: minimal contraction
  expression of CD127, CD62L, and Bcl-2 on memory CD8^+ T cells: higher levels
  frequency of KLRG-1^Low memory CD8^+ T cells: higher frequency
  number of GP33 epitope-specific CD8^+ T cells in PBMCs: higher number
  number of epitope-specific CD8^+ T cells (GP33, GP276, NP396, NP205, GP118) in spleen: enhanced the number
  numbers of antigen-specific CD8^+ T cells in lymphoid and non-lymphoid tissues: Increased numbers
  phenotype of virus-specific CD8^+ T cells: CD127^High CD62L^High KLRG-1^Low Bcl-2^High phenotype
[12]; 0.075 mg/kg Day -1 to Day 34, Day 35 post-vaccination
  number of virus-specific (DbGP33 tetramer-positive) CD8^+ T cells in spleen: significantly increased
[12]; 0.075 mg/kg Day -1 to Day 34, spleen Day 35
  phenotype of virus-specific CD8^+ T cells: markers of high quality memory T cells (CD127^High, CD62L^High, KLRG-1^Low, Bcl-2^High)
[13]
  T cell contraction: slower
  number of memory CD8^+ T cells maintained: higher number
[14]
  incorporation of BrdU by antigen-specific CD8^+ T cells: minimal incorporation
[15]; 34 days post-immunization
  phenotype of antigen-specific CD8^+ T cells from spleen: markers of high quality memory T cells (CD127^High, CD62L^High, KLRG-1^Low, Bcl-2^High)
[15]; 165 days after stopping the drug treatment
  memory T cell numbers relative to control: 10 fold
[15]; PBMC and spleen (Day 34), vs control
  number of antigen-specific CD8^+ T cells maintained: higher number
[15]; low dose rapamycin from Day -1, PBMC, vs control
  expansion of GP33 epitope-specific CD8^+ T cells after VLP immunization: expanded similarly
[15]; mouse, in vivo
  magnitude and quality of VLP-induced memory CD8^+ T cells: enhanced both the magnitude and the quality
[16]; 0.6 mg/kg daily from Day -1, Day 42 post-transfer, vs untreated
  number of virus-specific CD8^+ T cells in the spleen: decreased
[16]; 0.6 mg/kg daily, Day 42 post-transfer, untreated 42.5%
  percentage of virus-specific CD8^+ T cells that divided more than twice (CFSE): 17.8%
P14 memory cells; 30 days post-transfer, control 36.8%
  percentage of P14 memory cells that divided more than twice in spleen: 46.1%
P14 memory cells; memory cells from rapamycin-treated mice (Example 1), up to 30 days post-transfer
  percentage of divided memory T cells in PBMC: increased
P14 memory cells; rapamycin Day -1 to Day 33, 30 days post transfer, vs memory cells of untreated mice
  homeostatic proliferation of memory CD8^+ T cells generated with rapamycin: superior
[17]
  effect of rapamycin treatment on phenotype / memory differentiation of FKBP12 knockdown P14 cells: diminished; also recorded: almost disappeared
  expression of memory markers (CD127, CD62L, Bcl2) on FKBP12 knockdown P14 cells under rapamycin: did not show increased expression
[18]
  Bcl-2 expression in Day 8 effector CD8^+ T cells: higher levels
  death of effector CD8^+ T cells during contraction phase: only minimal death
  phenotype of memory CD8^+ T cells: similar
  proportion of CD127^High KLRG-1^Low cells among Day 8 effector CD8^+ T cells: higher proportion
